Assays:
human PBL = test: Proliferation of human PBMC/PBL activated with anti-CD3/28 (3H-thymidine); format: cell-based; conditions: anti-CD3/28 antibodies, 24 or 48 hours
Method: (§1) FIGS. 2A-2E, show proliferation and activation of T cells are inhibited by 2ME2. FIG. 2A, CD4^+ T cells were pre-treated with the indicated concentrations of 2ME2 and stimulated with plate-bound anti-CD3/28 or PMA/iono. Proliferation was assayed 24 hours (left) or 48 hours (right) later by 3H-thymidine incorporation. FIG. 2B, CD4^+ and CD8^+ T cells were stimulated with anti-CD3/28 in the presence of increasing concentrations of 2ME2. CD25 expression was assessed at 6 hours or 24 hours post-stimulation by flow cytometry. FIG. 2C, Quantification of CD25 expression in purified CD4^+ T cells pre-treated with increasing concentrations of 2ME2, and stimulated with anti CD3/28 or PMA/iono for 6 or 24 hours. […] Viability was determined 24 hours or 48 hours post-stimulation by flow cytometry. […] Proliferation was determined 24 hours or 48 hours later by 3H-thymidine incorporation. […]
(§2) Purified CD4^+ T cells were stimulated with plate-bound anti-CD3 (clone 2C11, BD, 10 ng/ml) plus anti-CD28 (clone 37.51, BD, 100 ng/ml). […] CD25 and CD69 expression was determined by flow cytometry (FACSCanto II, BD) and analyzed using FloJo software (Treestar Inc). Proliferation was assessed by 3H-thymidine incorporation. Viability and upregulation of cell surface markers on activated T cells were assessed by flow cytometry using Annexin V and propridium iodide. […]

NFATc1 = NFATc1 nuclear translocation by immunoblotting of nuclear fractions; format: cell-based, C57/BL6 mice
Method: (§3) FIG. 4A, purified T cells pre-treated with 2ME2 (50 μM) were stimulated with PMA/iono for the indicated times. Whole cell lysates were subjected to immunoblotting to detect the indicated proteins. FIG. 4B, nuclear lysates were analyzed by EMSA to detect DNA binding to NF-κB or AP-1. FP, free probe. FIG. 4C, purified T cells or B cells were pre-treated with vehicle (−) or 50 μM 2ME2 (+) and were stimulated with PMA/iono for 30 or 60 minutes (left), or with anti-CD3/28 or anti-IgM/CD40 for 24 hours (right). Nuclear fractions of lymphocytes were analyzed by immunoblotting to detect nuclear translocation of NFATc1. Lamin A, nuclear protein loading control. NS; non-specific band. For FIGS. 4A-4C, data are representative of at least two independent experiments. FIG. 4D, stably transfected NFAT and NF-κB Jurkat luciferase reporter cell lines were preincubated with 2ME2 for 30 minutes, and stimulated via crosslinking of anti-CD3/28 antibodies with goat anti-mouse antibodies (GaM). 5 hours later, secreted luciferase activity indicates relative transcriptional activity. Data is reported as normalized luciferase activity and is representative of 3 independent experiments.
T or B cells pre-incubated with vehicle or 2ME2 (50 μM) were stimulated with PMA (10 ng/ml)+iono (50 ng/ml); plate-bound anti-CD3 (30 ng/ml)+anti-CD28 (100 ng/ml); or anti-IgM (1 μg/ml)+anti-CD40 (1 μg/ml). Nuclear extracts (5 μg protein) were immunoblotted with anti-NFATc1 (clone 7A6, Santa Cruz) and anti-Lamin A (clone H-102, Santa Cruz).

purified CD4^+ T cells = test: Proliferation of purified CD4+ T cells by 3H-thymidine incorporation; format: cell-based, C57/BL6 mice; conditions: 24 hours or 48 hours post-stimulation
Method: as §1, §2

NF-κB = test: EMSA of T cell nuclear extracts; format: cell-based, C57/BL6 mice; conditions: 2ME2 50 μM, PMA/iono
Method: as §3
(§4) Nuclear extracts of T cells stimulated with PMA (10 ng/ml)+calcium ionophore A23187 (iono, Sigma) (50 ng/ml) for 30 or 60 minutes were prepared according to a standard protocol. […]

AP-1 = test: EMSA of T cell nuclear extracts; format: cell-based, C57/BL6 mice; conditions: 2ME2 50 μM, PMA/iono
Method: as §3, §4

T cells [1] = test: T cell viability by flow cytometry (Annexin V and propidium iodide); format: cell-based, C57/BL6 mice
Method: FIGS. 2A-2E, show proliferation and activation of T cells are inhibited by 2ME2. FIG. 2A, CD4^+ T cells were pre-treated with the indicated concentrations of 2ME2 and stimulated with plate-bound anti-CD3/28 or PMA/iono. Proliferation was assayed 24 hours (left) or 48 hours (right) later by 3H-thymidine incorporation. FIG. 2B, CD4^+ and CD8^+ T cells were stimulated with anti-CD3/28 in the presence of increasing concentrations of 2ME2. CD25 expression was assessed at 6 hours or 24 hours post-stimulation by flow cytometry. FIG. 2C, Quantification of CD25 expression in purified CD4^+ T cells pre-treated with increasing concentrations of 2ME2, and stimulated with anti CD3/28 or PMA/iono for 6 or 24 hours. FIG. 2D, T cells were pretreated with the indicated doses of 2ME2 and left untreated (left) or stimulated using plate-bound anti-CD3/28 (right). Viability was determined 24 hours or 48 hours post-stimulation by flow cytometry. FIG. 2E, human PBMC were activated with anti-human CD3/28 in the presence of increasing concentrations of 2ME2. Proliferation was determined 24 hours or 48 hours later by 3H-thymidine incorporation. Data are mean±SD of triplicate determinations and are representative of three separate donors. For FIG. 2A and FIG. 2E, data shown are the mean±SD of triplicate determinations, and are representative of 3 experiments. For FIG. 2B and FIG. 2C data is representative of two experiments.
(§5) Cells were pre-incubated with various concentrations of 2ME2 (Entremed) or vehicle (DMSO) for 30 minutes at 37° C.
as §2

[2] = oral 2ME2, mice and humans; cited from earlier work
T cells [3] = test: T cell activation markers CD25 and CD69 by flow cytometry; format: cell-based, C57/BL6 mice; conditions: anti-CD3/28 or PMA/iono
Method: as §1, §2

activated B cells = test: B cell activation markers CD25 and CD69; format: cell-based, C57/BL6 mice
Method: as §5
Purified CD4^+ T cells were stimulated with plate-bound anti-CD3 (clone 2C11, BD, 10 ng/ml) plus anti-CD28 (clone 37.51, BD, 100 ng/ml). Purified B220+ B cells were stimulated with anti-IgM (Jackson, 5 μg/ml), anti-CD40 (clone 3/20, BD, 5 μg/ml) or LPS (Sigma, 20 μg/ml) for the times indicated in FIG. 3. CD25 and CD69 expression was determined by flow cytometry (FACSCanto II, BD) and analyzed using FloJo software (Treestar Inc). Proliferation was assessed by 3H-thymidine incorporation. Viability and upregulation of cell surface markers on activated T cells were assessed by flow cytometry using Annexin V and propridium iodide. Human Peripheral blood mononuclear cells (PBMC) were isolated using Mono-Poly Resolving Medium (MP Biomedical) according to the manufacturer's protocols and activated with anti-CD3 (clone UCHT1) and anti-CD28 (clone CD28.2).

ERβ = ERβ (Homo sapiens, UniProt Q92731); conditions: cited from earlier work
ERβ, sequence (Q92731 whole entry, species assumed): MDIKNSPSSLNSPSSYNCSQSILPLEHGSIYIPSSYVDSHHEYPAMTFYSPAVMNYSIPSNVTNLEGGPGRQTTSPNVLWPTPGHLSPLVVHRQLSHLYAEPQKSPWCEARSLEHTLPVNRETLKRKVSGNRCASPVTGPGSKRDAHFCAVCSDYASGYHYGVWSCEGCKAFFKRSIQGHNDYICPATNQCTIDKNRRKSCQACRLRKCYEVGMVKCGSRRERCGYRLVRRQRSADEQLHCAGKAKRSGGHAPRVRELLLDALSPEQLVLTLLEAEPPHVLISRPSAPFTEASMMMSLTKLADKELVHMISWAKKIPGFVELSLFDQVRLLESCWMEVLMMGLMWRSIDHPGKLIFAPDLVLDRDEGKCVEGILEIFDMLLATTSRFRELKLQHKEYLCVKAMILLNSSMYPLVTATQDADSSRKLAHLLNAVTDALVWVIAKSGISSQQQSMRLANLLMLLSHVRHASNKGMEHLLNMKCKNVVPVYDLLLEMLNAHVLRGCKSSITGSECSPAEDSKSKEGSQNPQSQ

[4] = test system: SEB-induced cytokine production; set-up: species or system C57/BL6 mice; conditions: mouse, in vivo

For `COc1cc2c(cc1O)CC[C@@H]1[C@@H]2CC[C@]2(C)[C@@H](O)CC[C@@H]12` [2ME2, 2-Methoxyestradiol], the “proliferation of human PBL” value (human PBL) was “inhibited in a dose-dependent manner”, the “NFATc1 in the nuclear fraction of T cells” value (NFATc1; 50 μM 2ME2, 30-60 minutes after PMA/iono stimulation) was “reduce the amount of NFATc1 present in the nuclear fraction” and the “NFATc1 in the nuclear fraction of T cells” value (NFATc1; 50 μM 2ME2, 24 hours after anti-CD3/28 stimulation) was “reduce the amount of NFATc1 present in the nuclear fraction”. The “NFATc1 in the nuclear fraction of B cells” value (NFATc1; 50 μM 2ME2, 24 hours after anti-IgM/CD40-stimulation) was “reduce the amount of NFATc1 present in the nuclear fraction”, the “anti-CD3/28 or PMA+iono-dependent proliferation” value (purified CD4^+ T cells) was “dose-dependent inhibition” and the “binding of NF-κB to DNA” value (NF-κB) was “normal”. For the same compound, the “AP-1 binding to DNA” value (AP-1) was “modest increase”, the “apoptosis in activated T cells” value (T cells [1]; 24 hours) was “none was apparent” and the “apoptosis in un-stimulated T cells” value (T cells [1]; 24 hours) was “only a modest 2ME2-dependent increase in apoptosis”. For the same compound, the “viability of activated T cells” value (T cells [1]; 48 hours post-stimulation) was “reduced viability”, the bioavailability [2] was 1.5% and the “up-regulation of CD25” value (T cells [3]) was “blocked up-regulation”. The “up-regulation of CD69” value (T cells [3]) was “blocked up-regulation”, the “up-regulation of CD25 in activated B cells” value (activated B cells) was “prevented” and the “up-regulation of CD69 in activated B cells” value (activated B cells) was “prevented”. The “lower affinity than estradiol for ERβ” value (ERβ) was 3200 fold, the “serum IL-6” value [4] was “significantly less” and the “serum TNFα” value [4] was “significantly less”.

Source: US9132138B2, “Method for the treatment of multiple sclerosis” (CASI Pharmaceuticals, Inc., priority 2012, dated 2015)
